Laboratory results from patent publication US20220249661A1, “Pharmaceutical composition for preventing or treating inflammatory bowel disease comprising Tumor necrosis factor alpha inhibitor and Prostaglandin E2” (SAMSUNG LIFE PUBLIC WELFARE FOUNDATION, priority 2021, published 2022).

What was measured:
Assay type in all cases: cell-based, human
[1] = system: normal person-derived intestinal organoids; test: Organoid reconstitution assay, normal person-derived organoids
Protocol: (§1) In order to evaluate the organoid-forming ability of intestinal crypts obtained from normal persons and patients with Crohn's disease, 100 intestinal crypts per 25 μL of Matrigel were dispensed into maintenance medium. The culture medium was changed once every two days. The number of viable organoids and enteroids per well was counted under a microscope (CK40, Olympus). The organoid-forming efficiency was calculated as the ratio of available organoids per 100 intestinal crypts. The organoid reconstitution rate was calculated by counting the number of organoids on day 4 and the number of organoids on day 10. Statistical analysis was performed by ANOVA using Bonferroni's multiple comparison test (* p<0.05, ** p<0.01 and *** p<0.001).
(§2) Normal person-derived organoids were cultured in a maintenance medium for 2 days to obtain a stable number of organoids, and then the medium was replaced with a differentiation medium every 2 days. For each experimental group, human recombinant TNFα and PGE2 (Cayman Chemical Company) or infliximab were added to the culture medium every day. The organoid reconstitution rate was calculated by comparing the number of organoids on day 4 and the number of organoids on day 10.

[2] = system: Crohn's disease patient-derived intestinal organoids; test: Organoid reconstitution assay, Crohn's disease patient-derived organoids
Protocol: as §1, §2
(§3) FIGS. 20 and 21 show the results of analyzing the changes in organoid reconstitution rate and cell viability of TNFα-treated Crohn's disease patient-derived organoids by infliximab and PGE2. Cases in need of actual infliximab treatment or potential PGE2 treatment are Crohn's disease patients, and based on the information obtained from the normal person-derived organoids, the effects of infliximab and PGE2 on Crohn's disease patient-derived organoids with reduced intestinal epithelial regeneration ability were evaluated.

[3] = system: normal person-derived intestinal organoids; test: MTT assay (cell viability), normal person-derived organoids
Protocol: (§4) To evaluate the cell viability of organoids, 100 μL of basal medium containing MTT (3-[4,5-dimethylthiazol-2-yl]-2,5-diphenyltetrazolium bromide) (Sigma-Aldrich) at a concentration of 500 μg/ml was added to each well of a culture plate and incubated for 2 hours at 37° C. To remove the medium and dissolve the Matrigel, 10 μL of 21 SDS (sodium dodecyl sulfate) solution was added thereto, followed by incubation for 2 hours. After adding 100 μL of detergent reagent, the organoids were further incubated for 1 hour, and the absorbance was measured at 562 nm for quantification. Statistical analysis was performed by ANOVA using Bonferroni's multiple comparison test (* p<0.05, ** p<0.01 and *** p<0.001).
(§5) To evaluate cell viability, MTT assay was performed in the same manner as in Experimental Example 2. Statistical analysis was performed by ANOVA using Bonferroni's multiple comparison test (* p<0.05, ** p<0.01 and *** p<0.001).

[4] = system: Crohn's disease patient-derived intestinal organoids; test: MTT assay (cell viability), Crohn's disease patient-derived organoids
Protocol: as §4, §5, §3

[5] = system: Crohn's disease patient-derived organoids; test: Wound healing assay, two-dimensional Crohn's disease patient-derived organoid monolayers
Protocol: (§6) For matrix coating, each well of the 24-well plate was coated at 37° C. for 1 hour with 500 μL of Matrigel diluted at a concentration of 51 in the basal medium. For two-dimensional culture, organoids in the three-dimensional culture were digested into single cells using TrypLE Express (Thermo Fisher). The digested cells were resuspended in the basal medium and seeded into Matrigel-coated wells.
(§7) For wound healing assay, 5×10^4 cells were seeded in wells of a 24-well plate containing inserts of CytoSelect™ 24-Well Wound Healing Assay. The two-dimensional organoid monolayers were cultured in maintenance medium until confluence was reached. The inserts were then carefully removed to produce 0.9-mm-diameter wounds, and 500 μL of fresh differentiation medium was added to each well. Then, the cells in the wound were monitored using a phase-contrast microscope at 0, 4, 8, 16, and 24 hours. At each time point, the area of the non-healed wound was measured in 3 different regions. Statistical analysis was performed by ANOVA using Bonferroni's multiple comparison test (* p<0.05, ** p<0.01 and *** p<0.001).
In addition, wound healing assay was performed in the same manner as in Experimental Example 7.
For the Crohn's disease patient-derived organoids of each experimental group, 30 ng/mL of human recombinant TNFα, or 10 nM of PGE2, and 1 or 10 μg/mL of infliximab were added to the culture medium daily. Statistical analysis was performed by ANOVA using Bonferroni's multiple comparison test (** p<0.01 and *** p<0.001).

LGR5 [6] = test: qPCR for LGR5 in Crohn's disease patient-derived organoids; conditions: TNFα 0, 30 or 100 ng/mL + high concentration (infliximab 10 μg/mL or PGE2 10 nM)
Protocol: For the Crohn's disease patient-derived organoids of each experimental group, 0, 30 or 100 ng/mL of human recombinant TNFα, 0, 5 or 10 nM of PGE2, and 0, 1 or 10 μg/mL of infliximab were added to the culture medium daily.
Total RNA was extracted from intestinal organoids using the RNeasy Mini Kit (QIAGEN). One-step qPCR was performed using the following primers together with One Step PrimeScript™ III RT-qPCR Mix (Takara): LGR5 primers (forward: 5′-[…]-3′, reverse: 5′-[…]-3′). Statistical analysis was performed by ANOVA using Bonferroni's multiple comparison test (* p<0.05 and *** p<0.001).

LGR5 [7] = test: FACS analysis for LGR5 in Crohn's disease patient-derived organoids; conditions: 30 ng/mL TNFα + high concentration (infliximab 10 μg/mL or PGE2 10 nM)
Protocol: For the Crohn's disease patient-derived organoids of each experimental group, 30 ng/mL of human recombinant TNFα, or 10 nM of PGE2, and 1 or 10 μg/mL of infliximab were added to the culture medium daily.
To prepare single-cell suspensions from organoids, organoids were incubated with TrypLE Express in a water bath at 37° C. for 30 minutes. Then, the cells were washed with basal medium and collected by filtration through a 40-μm cell strainer. Flow cytometry for detecting the marker was performed using 1×10^5 cells. Cells were incubated with human Lgr5/GPR49 antibody (R&D Systems) in FACS buffer for 30 min. Unbound antibodies were washed out, and the cells were incubated with Alexa Fluor 488-conjugated anti-mouse immunoglobulin G secondary antibody (Thermo Fisher) for 30 minutes. The cells were then washed, resuspended in FACS buffer, and analyzed on the FACS Aria III instrument (BD Biosciences) to evaluate LGR5+ ISCs population.

[8] = system: normal person-derived organoids; test: EdU assay (cell proliferation), normal person-derived organoids; conditions: 30 ng/mL TNFα vs TNFα-untreated
Protocol: (§8) To evaluate the cell proliferation of organoids, each organoid was incubated for 2 hours in a medium containing 10 μM of EdU (5-ethynyl-2′-deoxyuridine) (Abcam), and then fixed with cold 41 paraformaldehyde (Biosesang). EDU incorporation in DNA was detected using Click-iT™ EdU Alexa Fluor® 488 imaging kit (Thermo Fisher). The number of EDU positive (+) cells in the organoids was counted using a confocal microscope (LSM 800, Carl Zeiss). Statistical analysis was performed by ANOVA using Bonferroni's multiple comparison test (* p<0.05 and *** p<0.001).

[9] = system: Crohn's disease patient-derived organoids; test: EdU assay (cell proliferation), Crohn's disease patient-derived organoids; conditions: 30 ng/mL TNFα; vs normal person-derived organoids
Protocol: as §8

[10] = system: normal person-derived organoids; test: Wound healing assay, two-dimensional normal person-derived organoid monolayers; conditions: TNFα-treated; 0-24 hours
Protocol: as §6, §7

[11] = system: normal person-derived organoids; test: Double immunofluorescence for CC3 and TUNEL, normal person-derived organoids; conditions: 30 ng/mL TNFα vs TNFα-untreated
Protocol: (§9) Cell death by TNFα occurs through apoptosis or necroptosis. CC3 (cleaved caspase-3) is a marker capable of detecting cells in which apoptosis has occurred, and TUNEL staining can detect DNA fragmented due to apoptosis, and thus detect cells in which apoptosis or necroptosis has occurred. Therefore, CC3+ and TUNEL+ cells are cells in which apoptosis has occurred, and CC3− and […] cells are cells in which necroptosis has occurred.
(§10) CC3 staining was performed using primary rabbit antibodies specific for CC3 and a goat anti-rabbit secondary antibody conjugated to Alexa 594 fluorochrome (red fluorescence). In TUNEL staining, In Situ Cell Death Detection Kit (Merck) was used for the same sections in CC3 staining, and then fluorescein-labeled dUTP (green fluorescence) was used. DAPI was used to stain intracellular DNA. Statistical analysis was performed by ANOVA using Bonferroni's multiple comparison test (*** p<0.001).

[12] = system: Crohn's disease patient-derived organoids; test: Double immunofluorescence for CC3 and TUNEL, Crohn's disease patient-derived organoids; conditions: 30 ng/mL TNFα; vs normal person-derived organoids
Protocol: as §9, §10

LGR5 [13] = test: Immunohistochemistry, LGR5+ cells per organoid, normal person-derived organoids; conditions: TNFα-treated vs TNFα-untreated
Protocol: (§11) After removing the culture medium, the organoids were washed with PBS and fixed in cold 4% paraformaldehyde at room temperature for 30 minutes. The fixed organoids were washed with PBS and embedded in HistoGel (Thermo Fisher). HistoGel blocks were used for paraffin embedding and sectioned for histologic examination and IHC. Histologic evaluation was performed using hematoxylin-eosin-stained sections. After heating-induced epitope retrieval with citrate buffer, IHC was performed using the following antibodies: cleaved caspase-3 (Asp175, 1:200 dilution, Cell Signaling), E-cadherin (1:100 dilution, Abcam), and LGR5 (1:400 dilution, Abcam). The number of LGR5+ cells per organoid in each of the TNFα-treated group (n=10) and the TNFα-untreated group (n=10) was counted, and statistical analysis was performed by ANOVA using Bonferroni's multiple comparison test (*** p<0.001).

LGR5 [14] = test: Immunohistochemistry, LGR5+ cells per organoid, Crohn's disease patient-derived organoids; conditions: TNFα-treated; vs normal person-derived organoids
Protocol: as §11

[15] = TNFα 30 and 100 ng/mL + high concentration (infliximab 10 μg/mL or PGE2 10 nM)
[16] = 30 or 100 ng/mL TNFα + high concentration (infliximab 10 μg/mL, PGE2 10 nM)
[17] = 30 ng/mL TNFα + high concentration (infliximab 10 μg/mL or PGE2 10 nM), after 16 hours
[18] = 0, 30 and 100 ng/mL TNFα, dependence on concentration
[19] = 30 or 100 ng/mL human recombinant TNFα
[20] = 30 ng/mL TNFα vs TNFα-untreated

CCCCC[C@H](O)/C=C/[C@H]1[C@H](O)CC(=O)[C@@H]1C/C=C\CCCC(=O)O [PGE2, prostaglandin E2]
organoid reconstitution rate ([1]; 100 ng/mL TNFα + 10 nM PGE2): significantly improved compared to when the organoids were not treated with PGE2
organoid reconstitution rate [1, 15]: the restoration of the organoid reconstitution rates was improved
organoid reconstitution rate [2, 16]: levels similar to those of TNFα-untreated normal person-derived organoids
cell viability (MTT) ([3]; 100 ng/mL TNFα + 10 nM PGE2): significantly improved compared to when the organoids were not treated with PGE2
cell viability (MTT) [4, 16]: levels similar to those of TNFα-untreated normal person-derived organoids
unhealed wound area [5, 17]: reduced, compared to when the organoids were treated with TNFα alone
LGR5 expression (qPCR) (LGR5 [6]): increased
LGR5 expression (FACS, LGR5+ ISCs population) (LGR5 [7]): increased

TNFα
organoid reconstitution rate [1, 18]: decreased
organoid reconstitution rate ([1]; 30 ng/mL TNFα vs not treated, differentiation medium 10 days, jejunum and ileum): decreased
organoid reconstitution rate ([2]; 30 ng/mL TNFα, differentiation medium 10 days, jejunum and ileum): decreased compared to those of the normal person-derived organoids
organoid reconstitution rate [2, 19]: decreased in a concentration-dependent manner
cell viability (MTT) [3, 18]: also decreased
cell viability (MTT) [3, 20]: decreased in both the jejunum and the ileum
cell viability (MTT) [4, 20]: decreased in both the jejunum and the ileum
apoptosis [4, 19]: increased in a concentration-dependent manner
unhealed wound area ([5]; TNFα alone, 0-24 hours): no significant decrease in the unhealed wound area even over time
number of EdU+ cells [8]: TNFα-untreated organoids increased compared to that in TNFα-treated organoids
number of EdU+ cells [9]: decreased compared to that of the normal person-derived organoids
unhealed wound area [10]: the wound area was recovered after 16 hours
number of CC3−, TUNEL+ and CC3+, TUNEL+ cells (cell death) [11]: increased
number of CC3−, TUNEL+ and CC3+, TUNEL+ cells (cell death) [12]: necroptosis more actively occurred than that in the normal person-derived organoids
number of LGR5+ cells per organoid (LGR5 [13]): increased
number of LGR5+ cells per organoid (LGR5 [14]): decreased in the Crohn's disease patient-derived organoids compared to the normal person-derived organoids

infliximab
organoid reconstitution rate [1, 15]: the restoration of the organoid reconstitution rates was improved
organoid reconstitution rate [2, 16]: levels similar to those of TNFα-untreated normal person-derived organoids
organoid reconstitution rate ([2]; TNFα + low concentration infliximab (1 μg/mL) alone): did not completely restore
cell viability (MTT) [4, 16]: levels similar to those of TNFα-untreated normal person-derived organoids
unhealed wound area [5, 17]: reduced, compared to when the organoids were treated with TNFα alone
LGR5 expression (qPCR) (LGR5 [6]): no difference in LGR5 expression depending on the concentration of TNFα
LGR5 expression (FACS, LGR5+ ISCs population) (LGR5 [7]): no difference in LGR5 expression from when the organoids were treated with TNFα
